Results taken from patent US7964352B2, “3′-OH unblocked nucleotides and nucleosides, base modified with labels and photocleavable, terminating groups and methods for their use in DNA sequencing” (priority 2006, dated 2011).
Where two headings read alike, the source gives them in different places.

Assays:
[1] = target: T1, T[…] polymerase (Thermococcus sp., UniProt Q56366, A485L/D141A/E143A); experiment: Polymerase end-point (PEP) assay, Therminator; format: biochemical, Thermococcus species 9°N-7
T1 construct: purchased
T1 sequence (Q56366 whole entry D141A/E143A/A485L): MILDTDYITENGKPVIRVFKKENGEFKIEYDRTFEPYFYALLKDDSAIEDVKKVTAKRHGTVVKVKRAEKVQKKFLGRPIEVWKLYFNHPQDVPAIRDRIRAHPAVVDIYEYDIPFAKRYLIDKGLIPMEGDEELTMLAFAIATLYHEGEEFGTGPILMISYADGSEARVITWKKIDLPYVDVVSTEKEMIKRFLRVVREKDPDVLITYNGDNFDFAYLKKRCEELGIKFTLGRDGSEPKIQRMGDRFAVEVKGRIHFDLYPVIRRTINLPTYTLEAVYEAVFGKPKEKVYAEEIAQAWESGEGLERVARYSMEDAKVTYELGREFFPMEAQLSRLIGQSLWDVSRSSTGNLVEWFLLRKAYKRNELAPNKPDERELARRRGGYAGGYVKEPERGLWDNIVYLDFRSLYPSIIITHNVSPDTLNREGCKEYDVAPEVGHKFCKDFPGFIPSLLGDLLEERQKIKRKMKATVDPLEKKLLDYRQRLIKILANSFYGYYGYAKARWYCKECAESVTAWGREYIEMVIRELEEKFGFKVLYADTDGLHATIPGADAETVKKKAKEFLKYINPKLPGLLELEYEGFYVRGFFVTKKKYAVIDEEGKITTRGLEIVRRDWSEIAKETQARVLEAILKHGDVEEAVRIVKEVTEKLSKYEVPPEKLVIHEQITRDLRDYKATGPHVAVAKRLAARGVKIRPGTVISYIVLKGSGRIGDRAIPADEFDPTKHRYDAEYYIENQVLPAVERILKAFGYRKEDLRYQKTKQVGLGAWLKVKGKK
Description: (§1) Numerous groups have employed qualitative, Sanger-based assays to estimate relative incorporation efficiencies of terminating nucleotide analogs compared to their natural nucleotide counterparts. Although useful, the ability to assay modified nucleotide analogs in the absence of natural nucleotides is not feasible using these assays. These two limitations led to a quantitative, polymerase end-point (PEP) assay, which is utilized in a high-throughput manner for screening numerous modified nucleotides against a number of well-characterized, commercially available polymerases. Identification of lead compounds with a specific DNA polymerase could then be prioritized for further kinetic studies. The PEP assay is designed with the polymerase concentration in excess of the primer/template complex (i.e., this complex is fully bounded with polymerase at the start of the titration), thereby limiting reaction to nucleotide binding and nucleotyl coupling steps. Limiting amounts of the desired nucleotide are then titrated across the appropriate concentration range (generally three orders of magnitude) to observe extension of a dye-labeled primer by gel electrophoresis. The end-point concentration is determined from a semi-log plot where the number of moles of substrate and product are equal, called the IC50 (i.e., incorporation concentration at 50%) value.
(§2) For all polymerases evaluated in this study, 40 nM of oligo-template (5′-TACGGAGCA-[…], interrogation base is underlined and bolded) was annealed to 5 nM BODIPY-FL labeled primer (5′-TTGTAAAACGACGGCCAGT) in 1× ThermoPol buffer (20 mM Tris-HCl, pH 8.8; 10 mM (NH4)2SO4, 10 mM KCl; 2 mM MgSO4; 0.1% Triton X-100, New England BioLabs) at 80° C. for 30 seconds, 57° C. for 30 seconds, and then cooled to 4° C. The primer/template complex is then diluted by one-half (i.e., its final concentration is 2.5 nM in a volume of 10 μL) by the addition of DNA polymerase, nucleotide analog, and ThermoPol buffer. This defines the lower limit of the IC50 value for nucleotide titrations to 1.25 nM (i.e., [primer]=[primer+1]). Polymerase reactions were incubated at their appropriate temperature for 10 minutes, then cooled to 4° C. and quenched with 10 μL of stop solution (98% deionized formamide; 10 mM Na2EDTA, pH 8.0; 25 mg/mL Blue Dextran, MW 2,000,000). Stopped reactions were heated to 90° C. for 30 seconds, and then placed on ice. […] The PEP assays were performed in triplicate for each DNA polymerase/nucleotide analog combination to calculate its IC50 values±one standard deviation.
(§3) The number of activity units for eight commercially available, 3′-exonuclease deficient (3′-exo-) DNA polymerases was first determined by titration with 2′-deoxyadenosine triphosphate (dATP, concentration range from 0.1 nM to 100 nM) with the goal of reaching the PEP IC50 limit of 1.25 nM (data not shown). In general, increasing the number of units reduced the IC50 values for dATP towards this limit, with exception with Taq, THERMINATOR™, and THERMINATOR™ II. For these enzymes, there was an increase in IC50 values for dATP with increasing enzyme concentration, which was not investigated further and presumed to be due to a direct relationship with increasing enzyme concentration and phosphorolysis. For these cases, the number of units used for subsequent PEP assays were those activity units that gave the lowest IC50 values for dATP.
(§4) WW1p129 and ddATP were then titrated using the PEP assay with the eight DNA polymerases (unit activities previously defined) in the concentration range of either 0.1 nM to 100 nM, 1 nM to 1μM, 10 nM to 10μM, or 100 nM to 100 μM (see Table 1). UV-light sensitive compounds were handled at all times in low light conditions to minimize conversion to dATP.

[2] = target: T2, Bst DNA polymerase (Geobacillus stearothermophilus, UniProt P52026); experiment: Polymerase end-point (PEP) assay, Bst; format: biochemical
T2 construct: purchased
T2 sequence (P52026 1-876): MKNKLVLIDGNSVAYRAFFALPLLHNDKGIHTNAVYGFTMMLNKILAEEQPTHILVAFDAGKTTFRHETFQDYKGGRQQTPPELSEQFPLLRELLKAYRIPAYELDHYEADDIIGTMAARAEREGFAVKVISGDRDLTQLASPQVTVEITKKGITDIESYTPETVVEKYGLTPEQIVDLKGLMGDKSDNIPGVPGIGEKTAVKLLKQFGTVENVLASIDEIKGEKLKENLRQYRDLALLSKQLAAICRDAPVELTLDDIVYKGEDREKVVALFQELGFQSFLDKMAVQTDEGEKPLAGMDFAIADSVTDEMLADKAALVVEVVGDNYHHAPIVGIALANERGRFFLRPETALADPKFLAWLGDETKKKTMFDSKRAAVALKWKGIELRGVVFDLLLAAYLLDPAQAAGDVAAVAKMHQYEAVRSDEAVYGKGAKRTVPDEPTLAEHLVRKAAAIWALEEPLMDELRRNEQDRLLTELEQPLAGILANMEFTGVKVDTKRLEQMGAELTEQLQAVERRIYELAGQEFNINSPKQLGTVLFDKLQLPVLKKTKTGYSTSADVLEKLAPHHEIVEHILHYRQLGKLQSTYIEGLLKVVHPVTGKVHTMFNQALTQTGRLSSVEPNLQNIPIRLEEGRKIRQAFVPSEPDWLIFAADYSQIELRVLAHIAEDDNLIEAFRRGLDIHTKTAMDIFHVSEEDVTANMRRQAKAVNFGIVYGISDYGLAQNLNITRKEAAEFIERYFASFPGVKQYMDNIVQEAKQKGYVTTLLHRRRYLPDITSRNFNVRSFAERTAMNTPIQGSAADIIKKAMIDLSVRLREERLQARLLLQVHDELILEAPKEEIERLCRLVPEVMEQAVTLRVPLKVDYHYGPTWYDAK
Description: as §1, §2, §3, §4

[3] = target: T3, AMPLITAQ DNA polymerase, FS (Taq FS) (Thermus aquaticus, UniProt P19821, F667Y/G46D); experiment: Polymerase end-point (PEP) assay, Taq FS; format: biochemical; conditions: Taq FS: 68° C.; incorporation concentration at 50%
T3 construct: purchased
T3 sequence (P19821 whole entry G46D/F667Y): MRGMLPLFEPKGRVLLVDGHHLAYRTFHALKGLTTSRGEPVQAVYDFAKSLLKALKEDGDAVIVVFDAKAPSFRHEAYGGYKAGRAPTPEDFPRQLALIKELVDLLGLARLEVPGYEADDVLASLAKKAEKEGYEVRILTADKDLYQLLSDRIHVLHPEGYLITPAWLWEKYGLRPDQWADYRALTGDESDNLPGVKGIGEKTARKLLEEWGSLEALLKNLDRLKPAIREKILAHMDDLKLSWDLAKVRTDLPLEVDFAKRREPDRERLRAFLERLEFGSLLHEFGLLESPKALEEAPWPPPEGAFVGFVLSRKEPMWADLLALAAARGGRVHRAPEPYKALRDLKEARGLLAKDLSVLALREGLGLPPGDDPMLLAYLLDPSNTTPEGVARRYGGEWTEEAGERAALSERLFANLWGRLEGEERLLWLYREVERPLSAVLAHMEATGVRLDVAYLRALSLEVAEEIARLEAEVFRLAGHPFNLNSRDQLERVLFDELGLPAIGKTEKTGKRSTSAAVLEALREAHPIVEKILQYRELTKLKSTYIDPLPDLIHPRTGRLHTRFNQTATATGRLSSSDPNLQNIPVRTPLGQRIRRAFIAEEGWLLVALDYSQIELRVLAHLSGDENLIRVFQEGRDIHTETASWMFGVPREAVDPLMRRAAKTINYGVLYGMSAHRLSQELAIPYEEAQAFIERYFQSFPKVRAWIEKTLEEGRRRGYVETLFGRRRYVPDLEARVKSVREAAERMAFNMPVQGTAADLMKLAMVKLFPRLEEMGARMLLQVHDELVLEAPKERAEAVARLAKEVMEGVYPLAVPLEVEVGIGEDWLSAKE
Description: as §1
(§5) For all polymerases evaluated in this study, 40 nM of oligo-template (5′-TACGGAGCA-[…], interrogation base is underlined and bolded) was annealed to 5 nM BODIPY-FL labeled primer (5′-TTGTAAAACGACGGCCAGT) in 1× ThermoPol buffer (20 mM Tris-HCl, pH 8.8; 10 mM (NH4)2SO4, 10 mM KCl; 2 mM MgSO4; 0.1% Triton X-100, New England BioLabs) at 80° C. for 30 seconds, 57° C. for 30 seconds, and then cooled to 4° C. The primer/template complex is then diluted by one-half (i.e., its final concentration is 2.5 nM in a volume of 10 μL) by the addition of DNA polymerase, nucleotide analog, and ThermoPol buffer. This defines the lower limit of the IC50 value for nucleotide titrations to 1.25 nM (i.e., [primer]=[primer+1]). […]

[4] = target: T4, Taq DNA polymerase (Thermus aquaticus, UniProt P19821); experiment: Polymerase end-point (PEP) assay, Taq; format: biochemical; conditions: Taq: 68° C.; incorporation concentration at 50%
T4 construct: purchased
T4 sequence (P19821 whole entry): as the sequence (P19821 whole entry G46D/F667Y) above, with D46G, Y667F counted along it
Description: as §1, §5

[5] = target: T5, T[…] DNA polymerase (Thermococcus sp., UniProt Q56366, A485L/D141A/E143A/Y409V); experiment: Polymerase end-point (PEP) assay, Therminator II; format: biochemical, Thermococcus species 9°N-7; conditions: Therminator II: 75° C.; incorporation concentration at 50%
T5 construct: purchased
T5 sequence (Q56366 whole entry D141A/E143A/Y409V/A485L): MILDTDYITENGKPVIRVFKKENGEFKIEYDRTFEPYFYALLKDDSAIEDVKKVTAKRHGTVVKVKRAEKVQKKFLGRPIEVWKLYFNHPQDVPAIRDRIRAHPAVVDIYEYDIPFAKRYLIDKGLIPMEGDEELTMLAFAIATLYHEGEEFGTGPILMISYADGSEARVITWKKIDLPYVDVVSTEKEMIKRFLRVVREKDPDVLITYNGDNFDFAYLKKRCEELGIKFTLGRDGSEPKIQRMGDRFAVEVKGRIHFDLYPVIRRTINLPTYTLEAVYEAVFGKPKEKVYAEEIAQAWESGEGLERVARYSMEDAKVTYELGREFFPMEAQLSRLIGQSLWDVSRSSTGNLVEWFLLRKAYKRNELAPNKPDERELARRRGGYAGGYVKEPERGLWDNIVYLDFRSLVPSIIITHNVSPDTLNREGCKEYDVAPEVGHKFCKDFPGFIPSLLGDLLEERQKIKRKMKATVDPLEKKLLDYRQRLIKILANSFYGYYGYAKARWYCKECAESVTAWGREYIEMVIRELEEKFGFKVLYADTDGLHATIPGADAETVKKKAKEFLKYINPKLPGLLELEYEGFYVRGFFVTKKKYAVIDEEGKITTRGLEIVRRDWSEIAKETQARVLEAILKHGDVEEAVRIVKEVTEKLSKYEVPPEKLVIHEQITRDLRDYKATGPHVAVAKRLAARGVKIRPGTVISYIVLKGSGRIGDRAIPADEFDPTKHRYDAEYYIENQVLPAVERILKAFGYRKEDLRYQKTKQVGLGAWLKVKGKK
Description: as §1, §5

[6] = target: T6, Klenow (3′-exo-) DNA polymerase (Escherichia coli, UniProt P00582, D355A/E357A); experiment: Polymerase end-point (PEP) assay, Klenow (3′-exo-); format: biochemical; conditions: Klenow (3′-exo-): 37° C.; incorporation concentration at 50%
T6 construct: Klenow(-exo-) DNA polymerase; purchased
T6 sequence (P00582 324-928 D355A/E357A): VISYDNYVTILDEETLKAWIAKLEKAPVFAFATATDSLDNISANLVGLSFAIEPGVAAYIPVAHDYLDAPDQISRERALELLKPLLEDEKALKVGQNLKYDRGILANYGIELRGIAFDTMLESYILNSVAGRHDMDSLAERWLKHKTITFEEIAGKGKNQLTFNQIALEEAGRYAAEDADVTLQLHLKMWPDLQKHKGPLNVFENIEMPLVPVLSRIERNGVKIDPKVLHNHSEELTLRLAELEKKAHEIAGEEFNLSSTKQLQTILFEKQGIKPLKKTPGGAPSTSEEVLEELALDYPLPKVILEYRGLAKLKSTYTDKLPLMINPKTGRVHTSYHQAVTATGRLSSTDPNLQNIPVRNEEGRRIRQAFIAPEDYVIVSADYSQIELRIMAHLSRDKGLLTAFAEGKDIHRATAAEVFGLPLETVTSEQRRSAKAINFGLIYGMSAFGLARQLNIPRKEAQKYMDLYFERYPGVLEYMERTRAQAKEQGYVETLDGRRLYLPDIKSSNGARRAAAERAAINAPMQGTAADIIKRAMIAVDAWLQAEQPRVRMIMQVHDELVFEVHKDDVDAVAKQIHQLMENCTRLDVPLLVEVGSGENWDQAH
Description: as §1, §5

[7] = target: T7, Vent (3′-exo-) DNA polymerase (Thermococcus litoralis, UniProt P30317, D141A/DEL1082-1471/DEL495-1032/E143A); experiment: Polymerase end-point (PEP) assay, Vent (3′-exo-); format: biochemical
T7 construct: purchased
T7 sequence (P30317 other isoform, or with tags, fused parts or gaps D141A/E143A/DEL495-1032/DEL1082-1471): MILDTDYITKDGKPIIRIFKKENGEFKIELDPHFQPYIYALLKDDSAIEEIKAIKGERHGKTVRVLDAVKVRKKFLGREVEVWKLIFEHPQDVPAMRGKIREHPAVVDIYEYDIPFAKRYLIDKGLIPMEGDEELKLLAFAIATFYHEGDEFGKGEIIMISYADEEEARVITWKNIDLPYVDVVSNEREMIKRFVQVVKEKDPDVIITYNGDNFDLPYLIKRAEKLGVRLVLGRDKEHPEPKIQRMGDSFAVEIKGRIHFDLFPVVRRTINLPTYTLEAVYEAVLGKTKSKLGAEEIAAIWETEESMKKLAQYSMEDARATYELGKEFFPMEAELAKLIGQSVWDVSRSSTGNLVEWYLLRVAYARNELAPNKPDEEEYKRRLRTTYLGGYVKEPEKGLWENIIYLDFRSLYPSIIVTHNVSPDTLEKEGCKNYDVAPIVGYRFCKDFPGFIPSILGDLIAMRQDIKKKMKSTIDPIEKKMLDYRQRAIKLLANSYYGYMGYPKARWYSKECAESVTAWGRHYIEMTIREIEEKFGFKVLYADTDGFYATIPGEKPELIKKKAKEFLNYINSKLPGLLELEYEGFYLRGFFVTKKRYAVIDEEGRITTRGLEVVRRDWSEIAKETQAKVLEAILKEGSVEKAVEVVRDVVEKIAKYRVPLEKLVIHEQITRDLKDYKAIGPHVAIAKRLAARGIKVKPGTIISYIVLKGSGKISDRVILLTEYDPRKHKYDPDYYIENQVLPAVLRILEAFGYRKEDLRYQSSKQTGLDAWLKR
Description: as §1, §5

[8] = target: T8, DeepVent (3′-exo-) DNA polymerase (Pyrococcus sp., UniProt Q51334, D141A/DEL493-1029/E143A); experiment: Polymerase end-point (PEP) assay, DeepVent (3′-exo-); format: biochemical, Pyrococcus species GB-D
T8 construct: purchased
T8 sequence (Q51334 other isoform, or with tags, fused parts or gaps D141A/E143A/DEL493-1029): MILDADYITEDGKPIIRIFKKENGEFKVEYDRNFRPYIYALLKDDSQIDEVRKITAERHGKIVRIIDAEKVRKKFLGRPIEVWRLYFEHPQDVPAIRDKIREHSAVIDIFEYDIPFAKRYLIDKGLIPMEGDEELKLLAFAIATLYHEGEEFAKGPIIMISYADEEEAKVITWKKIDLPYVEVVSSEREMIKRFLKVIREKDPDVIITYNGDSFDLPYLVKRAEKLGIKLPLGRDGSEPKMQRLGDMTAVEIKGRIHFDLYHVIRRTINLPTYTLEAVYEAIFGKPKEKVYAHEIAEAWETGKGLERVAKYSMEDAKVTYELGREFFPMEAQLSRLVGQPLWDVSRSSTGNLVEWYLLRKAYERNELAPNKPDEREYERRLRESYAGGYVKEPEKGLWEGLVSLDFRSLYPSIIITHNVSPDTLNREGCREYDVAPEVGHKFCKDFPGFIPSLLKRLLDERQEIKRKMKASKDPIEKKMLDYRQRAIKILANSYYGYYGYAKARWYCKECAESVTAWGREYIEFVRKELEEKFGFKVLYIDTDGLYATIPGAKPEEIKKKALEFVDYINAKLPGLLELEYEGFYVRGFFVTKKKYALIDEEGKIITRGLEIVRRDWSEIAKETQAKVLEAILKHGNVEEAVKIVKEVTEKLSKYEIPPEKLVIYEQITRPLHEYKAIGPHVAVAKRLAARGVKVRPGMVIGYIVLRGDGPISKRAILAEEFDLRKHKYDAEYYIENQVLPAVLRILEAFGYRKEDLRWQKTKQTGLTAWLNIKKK
Description: as §1, §5

[9] = Table 2, incorporation concentration at 50%, read-out: IC50 values, Therminator
[10] = Therminator: 75° C., incorporation concentration at 50%, Table 1, read-out: IC50 values
[11] = Bst: 65° C., IC50 = incorporation concentration at 50%, Table 1, read-out: IC50 values
[12] = Vent (3′-exo-): 72° C., incorporation concentration at 50%, read-out: IC50 values
[13] = DeepVent (3′-exo-): 72° C., incorporation concentration at 50%, read-out: IC50 values
[14] = Table 2, incorporation concentration at 50%, read-out: IC50 values, Bst

Compound	IC50 [1, 9] [nM]	IC50 [1, 10] [nM]	IC50 [3] [nM]	IC50 [4] [nM]	IC50 [5] [nM]	IC50 [6] [nM]	IC50 [2, 14] [nM]	also measured
Nc1nc(OCc2ccc(C#CCNC(=O)c3ccc(C(=O)[O-])c(C4=c5cc6c7c(c5Oc5c4cc4c8c5CCCN8CCC4)CCC[N+]=7CCC6)c3)cc2[N+](=O)[O-])c2ncn([C@H]3C[C@H](O)[C@@H](COP(=O)(O)OP(=O)(O)OP(=O)(O)O)O3)c2n1 [WW2p121, 6-ROX Labeled O^6-[4-(3-Amino-1-propynyl)-2-nitrobenzyl]-2′-deoxyguanosine-5′-triphosphate]								IC50 [1]: 6.3 ± 0.4 nM
6-JOE Labeled 5-[4-(3-Amino-1-propynyl)-2-nitrobenzyloxymethyl]-2′-deoxyuridine-5′-triphosphate [WW2p075]	3.8 ± 1.1							
Nc1ncnc2c1ncn2[C@H]1CC[C@@H](COP(=O)(O)OP(=O)(O)OP(=O)(O)O)O1 [ddATP]		9.7 ± 1.1	3.3 ± 0.1	12600 ± 900	230 ± 30	29 ± 5		IC50 [2, 11]: 370 ± 30 nM; IC50 [7, 12]: 550 ± 40 nM; IC50 [8, 13]: 3400 ± 400 nM
O=c1nc(NCc2ccccc2[N+](=O)[O-])ccn1[C@H]1C[C@H](O)[C@@H](COP(=O)(O)OP(=O)(O)OP(=O)(O)O)O1 [WW2p044, N^4-(2-Nitrobenzyl)-2′-deoxycytidine-5′-triphosphate]							57 ± 11	IC50 [1]: 1.8 ± 0.2 nM
Nc1nc(OCc2ccccc2[N+](=O)[O-])c2ncn([C@H]3C[C@H](O)[C@@H](COP(=O)(O)OP(=O)(O)OP(=O)(O)O)O3)c2n1 [WW2p077, O^6-(2-Nitrobenzyl)-2′-deoxyguanosine-5′-triphosphate]	6.9 ± 0.5						3800 ± 200	
Nc1ncnc2c1ncn2[C@H]1C[C@H](O)[C@@H](COP(=O)(O)OP(=O)(O)OP(=O)(O)O)O1 [dATP, 2′-deoxyadenosine triphosphate]		2.3 ± 0.3	5.3 ± 0.1	5.5 ± 0.5	4.4 ± 0.6	1.6 ± 0.1		IC50 [7]: 1.6 ± 0.2 nM; IC50 [8]: 2.8 ± 0.2 nM
O=c1[nH]c(=O)n([C@H]2C[C@H](O)[C@@H](COP(=O)(O)OP(=O)(O)OP(=O)(O)O)O2)cc1COCc1ccccc1[N+](=O)[O-] [VL3p03085, 5-(2-Nitrobenzyloxymethyl)-2′-deoxyuridine-5′-triphosphate]	1.1 ± 0.1						138 ± 38	
O=[N+]([O-])c1ccccc1CNc1ncnc2c1ncn2[C@H]1C[C@H](O)[C@@H](COP(=O)(O)OP(=O)(O)OP(=O)(O)O)O1 [WW1p129, N^6-(2-Nitrobenzyl)-2′-deoxyadenosine-5′-triphosphate]	2.5 ± 0.4	3.1 ± 0.4	890 ± 60	2100 ± 200	7.8 ± 0.7	4.3 ± 0.2	39 ± 9	IC50 [2, 11]: 21 ± 3 nM; IC50 [7, 12]: 2.1 ± 0.2 nM; IC50 [8, 13]: 11 ± 0.6 nM
CN(C)c1ccc2c(-c3cc(C(=O)NCC#Cc4ccc(CNc5ccn([C@H]6C[C@H](O)[C@@H](COP(=O)(O)OP(=O)(O)OP(=O)(O)O)O6)c(=O)n5)c([N+](=O)[O-])c4)ccc3C(=O)[O-])c3ccc(=[N+](C)C)cc-3oc2c1 [WW2p080, 6-TAMRA Labeled N^4-[4-(3-Amino-1-propynyl)-2-nitrobenzyl]-2′-deoxycytidine-5′-triphosphate]	3 ± 0.6							
